Consider 22 compounds from patent publication US12685726B2, “Sulfoximines as inhibitors of NaV1.8” (Gruenenthal GmbH, priority 2022, dated 2026).

The experiment addresses T1, human NaV 1.8 (Homo sapiens, UniProt Q9Y5Y9).
T1 construct: expressed in transfected cells; host or cells: HEK (recombinant cell line)
Description: Automated whole-cell patch clamp (Qube384) voltage-clamp recordings of sodium currents in HEK-NaV1.8 cell line. It counts as cell-based. To be noted: read-out: Potency category (human NaV 1.8 IC50). In short, it runs like this: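 HEK cells expressing NaV1.8 with b3, whole-cell automated voltage clamp at room temperature or 19° C.; CsF-based internal, pH 7.4 external. State-dependent (−120 mV, V1/2 4 s, −10 mV test pulses) and 10/20 Hz 40-pulse protocols; ~12 min compound, vehicle-corrected, IC50 by 4-parameter logistic fit.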

T1 sequence (Q9Y5Y9 whole entry): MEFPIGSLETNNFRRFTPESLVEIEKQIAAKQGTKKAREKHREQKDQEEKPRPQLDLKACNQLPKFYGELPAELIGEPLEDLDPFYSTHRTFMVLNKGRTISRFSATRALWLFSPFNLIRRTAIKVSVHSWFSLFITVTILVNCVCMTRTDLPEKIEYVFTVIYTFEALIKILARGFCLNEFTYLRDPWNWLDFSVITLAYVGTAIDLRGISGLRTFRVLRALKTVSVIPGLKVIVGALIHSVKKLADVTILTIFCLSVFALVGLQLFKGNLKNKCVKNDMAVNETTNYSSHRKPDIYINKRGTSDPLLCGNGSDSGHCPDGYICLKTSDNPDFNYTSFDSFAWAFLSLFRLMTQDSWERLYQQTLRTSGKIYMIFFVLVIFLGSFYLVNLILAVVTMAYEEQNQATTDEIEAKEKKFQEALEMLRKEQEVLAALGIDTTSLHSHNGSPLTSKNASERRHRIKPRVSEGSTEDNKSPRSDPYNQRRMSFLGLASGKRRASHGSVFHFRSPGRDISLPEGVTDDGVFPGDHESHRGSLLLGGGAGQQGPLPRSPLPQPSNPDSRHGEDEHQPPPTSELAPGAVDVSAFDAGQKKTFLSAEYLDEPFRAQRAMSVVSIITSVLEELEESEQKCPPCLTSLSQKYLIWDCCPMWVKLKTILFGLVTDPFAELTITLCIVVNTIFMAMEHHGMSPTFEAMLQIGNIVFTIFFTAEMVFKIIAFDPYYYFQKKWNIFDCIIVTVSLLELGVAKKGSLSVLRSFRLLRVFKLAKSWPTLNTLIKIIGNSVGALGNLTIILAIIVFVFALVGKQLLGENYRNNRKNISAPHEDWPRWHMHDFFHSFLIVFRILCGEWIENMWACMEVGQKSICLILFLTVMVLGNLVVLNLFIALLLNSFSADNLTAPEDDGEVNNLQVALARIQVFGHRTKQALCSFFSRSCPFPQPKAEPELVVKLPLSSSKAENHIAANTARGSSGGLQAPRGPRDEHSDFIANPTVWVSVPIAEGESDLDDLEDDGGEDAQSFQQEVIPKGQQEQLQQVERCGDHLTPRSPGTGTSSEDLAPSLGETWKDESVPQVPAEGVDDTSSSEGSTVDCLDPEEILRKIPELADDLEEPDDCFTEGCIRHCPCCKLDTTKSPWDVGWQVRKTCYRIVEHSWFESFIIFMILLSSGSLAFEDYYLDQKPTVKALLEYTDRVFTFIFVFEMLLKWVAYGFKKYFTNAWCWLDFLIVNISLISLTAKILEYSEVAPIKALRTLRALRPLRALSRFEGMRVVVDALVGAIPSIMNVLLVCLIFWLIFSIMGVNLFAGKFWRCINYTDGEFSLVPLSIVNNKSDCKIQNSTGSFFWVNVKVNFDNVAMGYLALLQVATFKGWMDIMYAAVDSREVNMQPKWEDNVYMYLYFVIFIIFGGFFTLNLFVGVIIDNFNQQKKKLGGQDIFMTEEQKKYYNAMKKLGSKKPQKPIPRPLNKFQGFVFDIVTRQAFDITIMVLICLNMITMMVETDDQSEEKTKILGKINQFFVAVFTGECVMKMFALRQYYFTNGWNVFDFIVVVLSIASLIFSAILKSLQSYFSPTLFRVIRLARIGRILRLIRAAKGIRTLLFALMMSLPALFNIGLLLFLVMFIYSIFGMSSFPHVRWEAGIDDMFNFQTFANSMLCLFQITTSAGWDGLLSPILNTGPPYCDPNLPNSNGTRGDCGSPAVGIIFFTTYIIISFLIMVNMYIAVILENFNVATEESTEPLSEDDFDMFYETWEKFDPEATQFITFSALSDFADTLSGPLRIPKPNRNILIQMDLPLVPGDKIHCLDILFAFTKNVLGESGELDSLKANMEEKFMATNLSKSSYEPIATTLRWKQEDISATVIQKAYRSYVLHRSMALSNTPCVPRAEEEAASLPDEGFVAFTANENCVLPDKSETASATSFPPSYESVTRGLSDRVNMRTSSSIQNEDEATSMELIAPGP

Usually IC50 stands for the concentration that gives 50% inhibition. Turning to `CC(=O)N1CC2(CCC2Cn2nc(C3CC3)c(C(F)(F)F)c2C(=O)Nc2ccnc(S(C)(=N)=O)c2)C1` (single isomer, unassigned) [Example 140a, 1-((2-Acetyl-2-azaspiro[3.3]heptan-5-yl)methyl)-3-cyclopropyl-N-(2-(S-methylsulfonimidoyl)pyridin-4-yl)-4-(trifluoromethyl)-1H-pyrazole-5-carboxamide], the IC50 lay within 100 to 1000 nM. As for `CC(=O)N1CC2(CCC2Cn2nc(C3CC3)c(C(F)(F)F)c2C(=O)Nc2ccnc(S(C)(=N)=O)c2)C1` (single isomer, unassigned) [Example 140b, 1-((2-Acetyl-2-azaspiro[3.3]heptan-5-yl)methyl)-3-cyclopropyl-N-(2-(S-methylsulfonimidoyl)pyridin-4-yl)-4-(trifluoromethyl)-1H-pyrazole-5-carboxamide], the IC50 was in the range of 100 to 1000 nM.

Turning to `CC1(Cn2nc(C34CC(F)(C3)C4)c(C(F)(F)F)c2C(=O)Nc2ccc(F)c(S(C)(=N)=O)c2)CC(F)(F)C1` (single isomer, unassigned) [Example 141a, 1-((3,3-Difluoro-1-methylcyclobutyl)methyl)-N-(4-fluoro-3-(S-methylsulfonimidoyl)phenyl)-3-(3-fluorobicyclo[1.1.1]pentan-1-yl)-4-(trifluoromethyl)-1H-pyrazole-5-carboxamide], the IC50 was no more than 100 nM. For `CC1(Cn2nc(C34CC(F)(C3)C4)c(C(F)(F)F)c2C(=O)Nc2ccc(F)c(S(C)(=N)=O)c2)CC(F)(F)C1` (single isomer, unassigned) [Example 141b, 1-((3,3-Difluoro-1-methylcyclobutyl)methyl)-N-(4-fluoro-3-(S-methylsulfonimidoyl)phenyl)-3-(3-fluorobicyclo[1.1.1]pentan-1-yl)-4-(trifluoromethyl)-1H-pyrazole-5-carboxamide], the IC50 was no more than 100 nM. With `CC1(Cn2nc(C3CC3)c(C(F)(F)F)c2C(=O)Nc2ccnc(S(C)(=O)=NC#N)c2)CC(F)(F)C1` (single isomer, unassigned) [Example 142a, N-(2-(N-Cyano-S-methylsulfonimidoyl)pyridin-4-yl)-3-cyclopropyl-1-((3,3-difluoro-1-methylcyclobutyl)methyl)-4-(trifluoromethyl)-1H-pyrazole-5-carboxamide], the IC50 is no more than 100 nM.

With `CC1(Cn2nc(C3CC3)c(C(F)(F)F)c2C(=O)Nc2ccnc(S(C)(=O)=NC#N)c2)CC(F)(F)C1` (single isomer, unassigned) [Example 142b, N-(2-(N-Cyano-S-methylsulfonimidoyl)pyridin-4-yl)-3-cyclopropyl-1-((3,3-difluoro-1-methylcyclobutyl)methyl)-4-(trifluoromethyl)-1H-pyrazole-5-carboxamide], the IC50 was no more than 100 nM. Turning to `CC1(Cn2nc(C(C)(C)C)c(C(F)(F)F)c2C(=O)Nc2ccnc(S(C)(=N)=O)c2)CC(F)(F)C1` (single isomer, unassigned) [Example 143a, 3-(Tert-butyl)-1-((3,3-difluoro-1-methylcyclobutyl)methyl)-N-(2-(S-methylsulfonimidoyl)pyridin-4-yl)-4-(trifluoromethyl)-1H-pyrazole-5-carboxamide], the IC50 is no more than 100 nM. Turning to `CC1(Cn2nc(C(C)(C)C)c(C(F)(F)F)c2C(=O)Nc2ccnc(S(C)(=N)=O)c2)CC(F)(F)C1` (single isomer, unassigned) [Example 143b, 3-(Tert-butyl)-1-((3,3-difluoro-1-methylcyclobutyl)methyl)-N-(2-(S-methylsulfonimidoyl)pyridin-4-yl)-4-(trifluoromethyl)-1H-pyrazole-5-carboxamide], the IC50 was no more than 100 nM. Regarding `CC1(Cn2nc(C3(C(F)(F)F)CC3)c(C(F)(F)F)c2C(=O)Nc2ccnc(S(C)(=N)=O)c2)CC(F)(F)C1` (single isomer, unassigned) [Example 144a, 1-((3,3-Difluoro-1-methylcyclobutyl)methyl)-N-(2-(S-methylsulfonimidoyl)pyridin-4-yl)-4-(trifluoromethyl)-3-(1-(trifluoromethyl)cyclopropyl)-1H-pyrazole-5-carboxamide], the IC50 is no more than 100 nM. As to `CC1(Cn2nc(C3(C(F)(F)F)CC3)c(C(F)(F)F)c2C(=O)Nc2ccnc(S(C)(=N)=O)c2)CC(F)(F)C1` (single isomer, unassigned) [Example 144b, 1-((3,3-Difluoro-1-methylcyclobutyl)methyl)-N-(2-(S-methylsulfonimidoyl)pyridin-4-yl)-4-(trifluoromethyl)-3-(1-(trifluoromethyl)cyclopropyl)-1H-pyrazole-5-carboxamide], the IC50 was no more than 100 nM. Take `CC1(Cn2nc(C3(C(F)F)CC3)c(C(F)(F)F)c2C(=O)Nc2ccnc(S(C)(=N)=O)c2)CC(F)(F)C1` (single isomer, unassigned) [Example 145a, 1-((3,3-Difluoro-1-methylcyclobutyl)methyl)-3-(1-(difluoromethyl)cyclopropyl)-N-(2-(S-methylsulfonimidoyl)pyridin-4-yl)-4-(trifluoromethyl)-1H-pyrazole-5-carboxamide]: the 50% inhibitory concentration (IC50) is no more than 100 nM. With `CC1(Cn2nc(C3(C(F)F)CC3)c(C(F)(F)F)c2C(=O)Nc2ccnc(S(C)(=N)=O)c2)CC(F)(F)C1` (single isomer, unassigned) [Example 145b, 1-((3,3-Difluoro-1-methylcyclobutyl)methyl)-3-(1-(difluoromethyl)cyclopropyl)-N-(2-(S-methylsulfonimidoyl)pyridin-4-yl)-4-(trifluoromethyl)-1H-pyrazole-5-carboxamide], the IC50 was no more than 100 nM.

On to `CC1(Cn2nc(C(C)(C)F)c(C(F)(F)F)c2C(=O)Nc2ccnc(S(C)(=N)=O)c2)CC(F)(F)C1` (single isomer, unassigned) [Example 148a, 1-((3,3-Difluoro-1-methylcyclobutyl)methyl)-3-(2-fluoropropan-2-yl)-N-(2-(S-methylsulfonimidoyl)pyridin-4-yl)-4-(trifluoromethyl)-1H-pyrazole-5-carboxamide], for which the IC50 was no more than 100 nM. For `CC1(Cn2nc(C(C)(C)F)c(C(F)(F)F)c2C(=O)Nc2ccnc(S(C)(=N)=O)c2)CC(F)(F)C1` (single isomer, unassigned) [Example 148b, 1-((3,3-Difluoro-1-methylcyclobutyl)methyl)-3-(2-fluoropropan-2-yl)-N-(2-(S-methylsulfonimidoyl)pyridin-4-yl)-4-(trifluoromethyl)-1H-pyrazole-5-carboxamide], the IC50 is no more than 100 nM. With `CC1(Cn2nc(C3(F)CC3)c(C(F)(F)F)c2C(=O)Nc2cccc(S(C)(=O)=NC(=O)C3COC3)c2)CC(F)(F)C1` (single isomer, unassigned) [Example 150a, 1-((3,3-Difluoro-1-methylcyclobutyl)methyl)-3-(1-fluorocyclopropyl)-N-(3-(S-methyl-N-(oxetane-3-carbonyl)sulfonimidoyl)phenyl)-4-(trifluoromethyl)-1H-pyrazole-5-carboxamide], the IC50 was no more than 100 nM. As for `CC1(Cn2nc(C3(F)CC3)c(C(F)(F)F)c2C(=O)Nc2cccc(S(C)(=O)=NC(=O)C3COC3)c2)CC(F)(F)C1` (single isomer, unassigned) [Example 150b, 1-((3,3-Difluoro-1-methylcyclobutyl)methyl)-3-(1-fluorocyclopropyl)-N-(3-(S-methyl-N-(oxetane-3-carbonyl)sulfonimidoyl)phenyl)-4-(trifluoromethyl)-1H-pyrazole-5-carboxamide], the IC50 was no more than 100 nM. Consider `CS(=N)(=O)c1cc(NC(=O)c2c(C(F)(F)F)c(C3CC3)nn2CC2CCC23CNC3)ccn1` (single isomer, unassigned) [Example 153a, 1-((2-Azaspiro[3.3]heptan-5-yl)methyl)-3-cyclopropyl-N-(2-(S-methylsulfonimidoyl)pyridin-4-yl)-4-(trifluoromethyl)-1H-pyrazole-5-carboxamide], for which the IC50 is 1000 to 10000 nM. For `CS(=N)(=O)c1cc(NC(=O)c2c(C(F)(F)F)c(C3CC3)nn2CC2CCC23CNC3)ccn1` (single isomer, unassigned) [Example 153b, 1-((2-Azaspiro[3.3]heptan-5-yl)methyl)-3-cyclopropyl-N-(2-(S-methylsulfonimidoyl)pyridin-4-yl)-4-(trifluoromethyl)-1H-pyrazole-5-carboxamide], the IC50 lay within 1000 to 10000 nM. Turning to `CS(=N)(=O)c1cc(NC(=O)c2c(C(F)(F)F)c(C3CC3)nn2CC2CCC23CNC3)ccn1` (single isomer, unassigned) [Example 153c, 1-((2-Azaspiro[3.3]heptan-5-yl)methyl)-3-cyclopropyl-N-(2-(S-methylsulfonimidoyl)pyridin-4-yl)-4-(trifluoromethyl)-1H-pyrazole-5-carboxamide], the IC50 was in the range of 1000 to 10000 nM.

Turning to `CS(=N)(=O)c1cc(NC(=O)c2c(C(F)(F)F)c(C3CC3)nn2CC2CCC23CNC3)ccn1` (single isomer, unassigned) [Example 153d, 1-((2-Azaspiro[3.3]heptan-5-yl)methyl)-3-cyclopropyl-N-(2-(S-methylsulfonimidoyl)pyridin-4-yl)-4-(trifluoromethyl)-1H-pyrazole-5-carboxamide], the IC50 was in the range of 1000 to 10000 nM. Take `CS(=N)(=O)c1cccc(NC(=O)c2c(C(F)(F)F)c(C34CC(C3)C4)nn2CC2C[C@@H]2C(F)F)c1` (stereo in doubt) [Example 139, 3-(Bicyclo[1.1.1]pentan-1-yl)-1-(((trans)-2-(difluoromethyl)cyclopropyl)methyl)-N-(3-(S-methylsulfonimidoyl)phenyl)-4-(trifluoromethyl)-1H-pyrazole-5-carboxamide]: the IC50 is no more than 100 nM.

As for `CS(=N)(=O)c1cc(NC(=O)c2c(C(F)(F)F)c(C34CC(C3)C4)nn2CC2C[C@@H]2C(F)F)ccn1` (stereo in doubt) [Example 146, 3-(Bicyclo[1.1.1]pentan-1-yl)-1-(((trans)-2-(difluoromethyl)cyclopropyl)methyl)-N-(2-(S-methylsulfonimidoyl)pyridin-4-yl)-4-(trifluoromethyl)-1H-pyrazole-5-carboxamide], the IC50 was no more than 100 nM.
